Measurements: article PMC6413952, “Discovery of ABBV-4083, a novel analog of Tylosin A that has potent anti-Wolbachia and anti-filarial activity” (PLoS Neglected Tropical Diseases, 2019)

How the values were obtained:
Litomosoides sigmodontis = Litomosoides sigmodontis larval mouse model (worm length); type: in vivo, BALB/c mice; settings: 35 days post-infection
Method: As described previously, female BALB/c mice or female jirds were infected at 6–8 weeks of age with L. sigmodontis larvae through the bites of Ornithonyssus bacoti mites. […] One day post infection, mice were dosed IP or PO with TylA (Sigma Aldrich, 200 mg/kg BID x 7 days), doxycycline hyclate (Sigma-Aldrich, 200 mg/kg BID x 14 days), or vehicle using a volume of 10 ml/kg. At 35 days post-infection mice were euthanized using an overdose of isoflurane; worms were recovered from the pleural cavity by pleural lavage, counted, sexed and staged for development into L4 and adult worms based on the difference of the buccal capsule through microscopic examination. Female worms were measured for length (mm) as a marker for development as previously described. Data were distributed in a non-parametric fashion, median and interquartile ranges are presented. For comparing the length of the female worms, the Mann-Whitney-U test was used to calculate statistical differences either against the vehicle treated or gold standard groups.

[1] = Rat oral pharmacokinetic study (plasma AUC, C8hr); type: in vivo, Sprague-Dawley rats; settings: for C*8hr / C*8hr/ EC50 / AUC*/EC50: PO rats; for AUC* parent / AUC* TylA (metabolite): PO, Sprague-Dawley rats; for C*8hr/ EC50: potency-weighted 8-hr drug level; for AUC*/EC50: potency-weighted AUC; for AUC* TylA (metabolite): primary metabolite TylA; for improvement in plasma drug levels (AUC) over TylA / drug levels relative to 2'-OH partners 5c and 5d: rats
Method: PO doses were administrated by oral gavage, IP doses by intraperitoneal injection to BALB/c mice or Sprague-Dawley rats (Charles River Laboratories, USA). Serial blood samples collected into EDTA anticoagulant for plasma concentration analysis were obtained from each animal after dosing. EDTA preserved plasma samples were extracted by protein precipitation with acetonitrile fortified with internal standards. The supernatant was injected into an HPLC-MS/MS system for separation and quantitation. Detection was accomplished using a triple quadrupole mass spectrometer operated either in electrospray or atmospheric chemical ionization (APCI) mode. The area under the plasma concentration-time curve (AUC) was calculated using the linear trapezoidal rule.

[2] = Mouse pharmacokinetic study (plasma levels, IP or PO); type: in vivo, BALB/c mice
Method: PO doses were administrated by oral gavage, IP doses by intraperitoneal injection to BALB/c mice or Sprague-Dawley rats (Charles River Laboratories, USA). Serial blood samples collected into EDTA anticoagulant for plasma concentration analysis were obtained from each animal after dosing. EDTA preserved plasma samples were extracted by protein precipitation with acetonitrile fortified with internal standards. The supernatant was injected into an HPLC-MS/MS system for separation and quantitation. Detection was accomplished using a triple quadrupole mass spectrometer operated either in electrospray or atmospheric chemical ionization (APCI) mode. The area under the plasma concentration-time curve (AUC) was calculated using the linear trapezoidal rule. […] Plasma levels of TylA in BALB/c mice following IP or PO dosing (100 mg/kg).

[3] = system: Wolbachia pipientis in Aedes albopictus C6/36 (wAlbB) insect cells; experiment: A·WOL Wolbachia-infected Aedes albopictus (C6/36 wAlbB) 7-day cell-based assay, high content imaging; settings: for activity against Wolbachia: commercially available 16-membered macrolides
Excerpt: Compounds were screened for anti-Wolbachia activity in vitro in the A·WOL-validated Wolbachia-infected Aedes albopictus (C6/36 wAlbB) 7-day cell-based assay which utilizes a 384-well format assay with high content imaging (HCI) (Operetta) as described previously.
We began our work by selecting a diverse and representative sample of the AbbVie antibiotics collection (129 compounds) for single-point testing against Wolbachia pipientis in an insect cell line. […] While TylA has a long history of use in multiple animal species, it has never been studied in humans; and its activity against Wolbachia has not previously been reported.

MDR-MDCK monolayer = type: in vitro ADME, canine; settings: MDCK-MDR1
Excerpt: Drug levels in the IP arm of this study were >30-fold higher than those achieved when the drug is given PO. […] Therefore, improving drug absorption by increasing permeability became a primary goal for our lead-optimization studies.

CC[C@H]1OC(=O)C[C@@H](O)[C@H](C)[C@@H](O[C@@H]2O[C@H](C)[C@@H](O[C@H]3C[C@@](C)(O)[C@@H](O)[C@H](C)O3)[C@H](N(C)C)[C@H]2O)[C@@H](CC=O)C[C@@H](C)C(=O)/C=C/C(C)=C/[C@@H]1CO[C@@H]1O[C@H](C)[C@@H](O)[C@@H](OC)[C@H]1OC [1 (TylA), Tylosin A]
length of recovered worms (Litomosoides sigmodontis; 200 mg/kg IP BID x 7 days): notably shorter than controls | length of recovered worms (Litomosoides sigmodontis; 200 mg/kg PO BID x 7 days): minimal response | C*8hr [1]: 0.5 ng/mL per mg/kg | AUC* parent [1]: 9.6 ng-hr/ml per mg/kg | C*8hr/ EC50 [1]: 0.02 ng/ml/nM per mg/kg | AUC*/EC50 [1]: 0.34 ng-hr/ml/nM per mg/kg | drug levels IP arm relative to PO ([2]; BALB/c mice, 100 mg/kg IP or PO): > 30 fold | EC50 ([3]; C6/36, Wolbachia-infected insect cells, geometric mean (N), each N a duplicate measurement): 28 nM | permeability (MDR-MDCK monolayer): < 0.1X10^-6 cm/sec

CCCCC(=O)OC1C(OC2C(CC=O)CC(C)C(=O)C=CC(C)=CC(COC3OC(C)C(O)C(OC)C3OC)C(CC)OC(=O)CC(O)C2C)OC(C)C(OC2CC(C)(O)C(O)C(C)O2)C1N(C)C (stereo not shown) [Compound 2c]
C*8hr [1]: 2.5 ng/mL per mg/kg | AUC* parent [1]: 58 ng-hr/ml per mg/kg | AUC* TylA (metabolite) [1]: 1.2 ng-hr/ml per mg/kg | potency-weighted 8-hr drug level (C8hr/dose/EC50) relative to TylA ([1]; oral dosing): doubles | potency-weighted AUC (AUC*/EC50) relative to TylA ([1]; oral dosing): ~ 2.6 fold | improvement in plasma drug levels (AUC) over TylA ([1]; oral dosing): 6 fold | metabolic stability of substituent / species observed in plasma ([1]; oral pharmacokinetic study): relatively metabolically stable | C*8hr/ EC50 [1]: 0.04 ng/ml/nM per mg/kg | AUC*/EC50 [1]: 0.89 ng-hr/ml/nM per mg/kg

CCC1OC(=O)CC(O)C(C)C(OC2OC(C)C(OC3CC(C)(O)C(OC(=O)N(CC)CC)C(C)O3)C(N(C)C)C2OC(=O)C(C)C)C(CC=O)CC(C)C(=O)C=CC(C)=CC1COC1OC(C)C(O)C(OC)C1OC (stereo not shown) [Compound 4d]
C*8hr [1]: 30 ng/mL per mg/kg | AUC* parent [1]: 420 ng-hr/ml per mg/kg | AUC* TylA (metabolite) [1]: 1.4 ng-hr/ml per mg/kg | drug levels relative to 2'-OH partners 5c and 5d ([1]; oral dosing): more than 10 fold | improvement in plasma drug levels (AUC) over TylA ([1]; oral dosing): 40–50 fold | C*8hr/ EC50 [1]: 1.25 ng/ml/nM per mg/kg | AUC*/EC50 [1]: 17.5 ng-hr/ml/nM per mg/kg

CC[C@H]1OC(=O)C[C@@H](O)[C@H](C)[C@@H](O[C@@H]2O[C@H](C)[C@@H](O[C@H]3C[C@@](C)(O)[C@@H](OCc4ccc(F)cc4)[C@H](C)O3)[C@H](N(C)C)[C@H]2OC(=O)C(C)C)[C@@H](CC=O)C[C@@H](C)C(=O)/C=C/C(C)=C/[C@@H]1CO[C@@H]1O[C@H](C)[C@@H](O)[C@@H](OC)[C@H]1OC [Compound 4e]
C*8hr [1]: 30 ng/mL per mg/kg | AUC* parent [1]: 510 ng-hr/ml per mg/kg | AUC* TylA (metabolite) [1]: <0.6 ng-hr/ml per mg/kg | drug levels relative to 2'-OH partners 5c and 5d ([1]; oral dosing): more than 10 fold | improvement in plasma drug levels (AUC) over TylA ([1]; oral dosing): 40–50 fold | C*8hr/ EC50 [1]: 1.03 ng/ml/nM per mg/kg | AUC*/EC50 [1]: 17.6 ng-hr/ml/nM per mg/kg

CCCCC(=O)OC1C(C)OC(OC2C(C)OC(OC3C(CC=O)CC(C)C(=O)C=CC(C)=CC(COC4OC(C)C(O)C(OC)C4OC)C(CC)OC(=O)CC(O)C3C)C(O)C2N(C)C)CC1(C)O (stereo not shown) [Compound 5a]
AUC* parent [1]: <0.6 ng-hr/ml per mg/kg | AUC* TylA (metabolite) [1]: 30 ng-hr/ml per mg/kg | parent ester in plasma ([2]; mice, oral, any time point): no sign of parent is observed | increase in oral drug levels upon 4"-acylation ([2]; mice, measured drug is deacylated metabolite TylA): ~ 3 fold | potency improvement (EC50) over TylA ([3]; EC50 lower than parent TylA): 25 fold

CCC1OC(=O)CC(O)C(C)C(OC2OC(C)C(OC3CC(C)(O)C(OC(=O)C(C)(C)C)C(C)O3)C(N(C)C)C2O)C(CC=O)CC(C)C(=O)C=CC(C)=CC1COC1OC(C)C(O)C(OC)C1OC (stereo not shown) [Compound 5b]
C*8hr [1]: 3.0 ng/mL per mg/kg | AUC* parent [1]: 58 ng-hr/ml per mg/kg | AUC* TylA (metabolite) [1]: <0.6 ng-hr/ml per mg/kg | potency-weighted AUC (AUC*/EC50) relative to TylA ([1]; oral dosing): 30 fold | improvement in plasma drug levels (AUC) over TylA ([1]; oral dosing): 6 fold | C*8hr/ EC50 [1]: 0.56 ng/ml/nM per mg/kg | AUC*/EC50 [1]: 10.7 ng-hr/ml/nM per mg/kg | deacylated product TylA as share of total circulating drug ([1]; rat pharmacokinetic study, oral): < 1%

CO[C@@H]1[C@@H](O[C@@H]2O[C@H](C)[C@@H](O[C@H]3C[C@@](C)(O)[C@@H](OC(=O)CC(C)C)[C@H](C)O3)[C@H](N(C)C)[C@H]2O)[C@@H](CC=O)C[C@@H](C)[C@@H](O)/C=C/C=C/C[C@@H](C)OC(=O)C[C@H]1O [leucomycin]
activity against Wolbachia [3]: inactive

CCC(=O)O[C@@H]1CC(=O)O[C@H](C)C/C=C/C=C/[C@H](O)[C@H](C)C[C@H](CC=O)[C@H](O[C@@H]2O[C@H](C)[C@@H](O[C@H]3C[C@@](C)(O)[C@@H](OC(=O)CC)[C@H](C)O3)[C@H](N(C)C)[C@H]2O)[C@H]1OC [midecamycin]
activity against Wolbachia [3]: inactive

josmycin
activity against Wolbachia [3]: inactive

spiramycin
activity against Wolbachia [3]: inactive
